Read-outs that look alike come from different tables or passages of the source.
Experiments:
human FSH receptor = target: T1, human FSH receptor (Homo sapiens, UniProt P23945); assay: Follicle-Stimulating Hormone Receptor-Dependent Cre-Luciferase Reporter Gene Assay (CHO FSH-R 6CRE-Luc cells); format: cell-based; settings: for IC50: dose-response format, in presence of EC50 of purified human FSH
T1 construct: host or cells: CHO-K1 (CHO FSH-R 6CRE-Luc, 1D7 cells)
T1 sequence (P23945 18-695): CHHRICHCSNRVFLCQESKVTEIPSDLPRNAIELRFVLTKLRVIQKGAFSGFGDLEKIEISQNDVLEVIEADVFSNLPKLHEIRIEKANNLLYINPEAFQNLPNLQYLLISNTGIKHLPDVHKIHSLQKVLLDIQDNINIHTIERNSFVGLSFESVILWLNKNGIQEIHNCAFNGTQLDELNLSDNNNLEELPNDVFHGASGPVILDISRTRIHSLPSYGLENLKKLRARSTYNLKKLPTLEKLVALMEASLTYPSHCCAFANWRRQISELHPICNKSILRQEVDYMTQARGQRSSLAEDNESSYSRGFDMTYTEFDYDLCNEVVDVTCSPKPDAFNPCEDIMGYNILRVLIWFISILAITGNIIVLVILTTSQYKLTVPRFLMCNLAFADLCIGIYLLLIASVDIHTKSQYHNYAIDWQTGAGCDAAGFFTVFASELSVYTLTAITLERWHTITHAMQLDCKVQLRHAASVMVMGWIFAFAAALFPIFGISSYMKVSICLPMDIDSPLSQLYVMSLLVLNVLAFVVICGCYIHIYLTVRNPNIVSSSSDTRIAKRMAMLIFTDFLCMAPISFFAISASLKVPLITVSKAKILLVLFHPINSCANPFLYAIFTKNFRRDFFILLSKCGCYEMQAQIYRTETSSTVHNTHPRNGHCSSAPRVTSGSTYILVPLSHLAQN
Summary of the method: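 CHO-K1 cells stably expressing human FSH receptor and a 6×CRE-driven luciferase reporter; compounds in growth medium with 0.2% DMSO, incubated 4 h at 37 °C. Luciferase measured by chemiluminescence (RLU/sec/well); 2-dose results given as percent inhibition of the response to an EC50 concentration of FSH.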

hFSH-R = target: T2, hFSH-R (Homo sapiens, UniProt P23945); assay: cAMP accumulation (RIA) in CHO-3D2 cells (hFSH-R), hFSH-induced; format: cell-based; settings: for Emax: read-out: cAMP % efficacy
T2 construct: expressed in transfected cells; host or cells: CHO-3D2 cells (CHO-K1 parental line)
T2 sequence (P23945 18-695): T1 sequence (P23945 18-695)
Procedure: In Vitro Bio-Assay, Selectivity and Dependency of Agonists and Antagonists to the FSH Receptor
Compound Vehicle: Stock compounds were solubilized in 100% DMSO (Sigma-Aldrich Chemical Co., St. Louis, Mo.) at a concentration of 30 mM. The compounds subsequently were diluted in sterile assay medium consisting of Opti-MEM® I (Invitrogen/Life Technologies, Carlsbad, Calif.) with 0.1% (w/v) BSA (Sigma-Aldrich) prior to use in the bio-assay. The final concentration of DMSO in the assay was 0.1%.
Plated cells are then incubated at 37° C. in a humidified 5% CO2/95% air atmosphere.
Assay: On the day of the assay, cells were washed three times with 100 μl/well of assay medium consisting of Opti-MEM® I (Invitrogen/Life Technologies) with 0.1% (w/v) BSA (Sigma-Aldrich). Medium was removed and 100 μl of assay medium was added to each well. Plates were incubated for an additional 30 minutes at 37° C. […] Reactions were terminated by the addition of 50 μl of 0.2N hydrochloric acid to each well and cAMP-accumulation was measured by radioimmunoassay (RIA) using a commercially available kit (Amersham Biosciences, Piscataway, N.J.).
All test compounds were evaluated in a dose-response paradigm ranging from 0.01 to 30 μM. Controls and test compounds were evaluated in quadruplicate in a 96-well format.
Along with the test compounds, FSH also was run as a positive control in the agonist mode using concentrations ranging from 0.1-1000 ng/ml.
Data were analyzed by one-way analysis of variance and significant differences between treatments and control determined by Least Significant Difference test.
Test compounds were compared to the effect of purified human FSH.

[1] = 2-dose format, concentration in parentheses 30 μM, inhibition of the response to EC50 of FSH
[2] = inhibition of cAMP accumulation induced by hFSH at EC20, CHO-3D2 cells

SMILES | IC50 (human FSH receptor) [µM] | IC50 (hFSH-R) [µM] | Emax (hFSH-R) [%] | melting point [°C] | also measured
Cc1ccccc1-c1ccc(C(=O)N2Cc3ccc(C(=O)NCc4cccc(O)c4)n3Cc3ccccc32)cc1C [Example 10] | 4.14 | 0.9 | 97 | – | –
Cc1ccc(CNC(=O)c2ccc3n2Cc2ccccc2N(C(=O)c2ccc(-c4ccccc4C)c(C)c2)C3)cc1 [Example 14] | 1.71 | 2.6 | 86 | 179 to 181 | –
COc1cc(CNC(=O)c2ccc3n2Cc2ccccc2N(C(=O)c2ccc(-c4ccccc4C)c(C)c2)C3)cc(OC)c1 [Example 20] | 12 | > 30 | – | 183 to 184 | –
Cc1cccc(CNC(=O)c2ccc3n2Cc2ccccc2N(C(=O)c2ccc(-c4ccccc4C)c(C)c2)C3)c1 [Example 22] | 2.88 | 3 | 62 | 130 to 132 | –
COc1cc(C(=O)N2Cc3ccc(C(=O)NCc4ccc(F)cc4F)n3Cc3ccccc32)ccc1-c1ccccc1C [Example 61, N-(2,4-DILUOROBENZYL)-10-[(2-METHOXY-2′-METHYL-1,1′-BIPHENYL-4-YL)CARBONYL]-10,11-DIHYDRO-5H-PYRROLO[2,1-C][1,4]BENZODIAZEPINE-3-CARBOXAMIDE] | 4.23 | – | – | – | CRE % inhibition (μM) (human FSH receptor; [1]): 50(30) %; IC50 (hFSH-R; [2]): 2.8 µM; cAMP % efficacy (hFSH-R; [2]): 82%
Cc1ccccc1-c1ccc(C(=O)N2Cc3ccc(C(=O)NCc4cccc(C(F)(F)F)c4)n3Cc3ccccc32)cc1C [Example 16] | 8.5 | 14 | 65 | 171 to 173 | –
COc1cccc(CNC(=O)c2ccc3n2Cc2ccccc2N(C(=O)c2ccc(-c4ccccc4C)c(C)c2)C3)c1 [Example 7] | 2.25 | 0.3 | 89 | – | –
COc1ccc(CCNC(=O)c2ccc3n2Cc2ccccc2N(C(=O)c2ccc(-c4ccccc4C)c(C)c2)C3)cc1 [Example 30] | – | – | – | 170 to 172 | inhibition at 30 µM (human FSH receptor; [1]): 62%
Cc1ccccc1-c1ccc(C(=O)N2Cc3ccc(C(=O)NCCc4ccc(Cl)cc4)n3Cc3ccccc32)cc1C [Example 27] | – | – | – | 169 to 171 | inhibition at 30 µM (human FSH receptor; [1]): 52%
Cc1ccc(CCNC(=O)c2ccc3n2Cc2ccccc2N(C(=O)c2ccc(-c4ccccc4C)c(C)c2)C3)cc1 [Example 29] | – | – | – | 161 to 163 | inhibition at 30 µM (human FSH receptor; [1]): 52%
COc1ccccc1-c1ccc(C(=O)N2Cc3ccc(C(=O)NCC(c4ccccc4)N(C)C)n3Cc3ccccc32)cc1 (stereo not shown) [Example 2] | 25.7 | 1.2 | 100 | – | –
Cc1ccccc1-c1ccc(C(=O)N2Cc3ccc(C(=O)NCc4ccccc4C(F)(F)F)n3Cc3ccccc32)cc1C [Example 24] | > 30 | – | – | 126 to 128 | –

Second part, led by results:

IC50 (human FSH receptor) [µM] | IC50 (hFSH-R) [µM] | Emax (hFSH-R) [%] | melting point [°C] | SMILES | also measured
1.69 | 0.5 | 83 | 179 to 180 | COc1cc(C(=O)N2Cc3ccc(C(=O)NCc4ccc(C)cc4)n3Cc3ccccc32)ccc1-c1ccccc1C [Example 38, 10-[(2-METHOXY-2′-METHYL-1,1′-BIPHENYL-4-YL)CARBONYL]-N-(4-METHYLBENZYL)-10,11-DIHYDRO-5H-PYRROLO[2,1-C][1,4]BENZODIAZEPINE-3-CARBOXAMIDE] | –
4.03 | 0.7 | 80 | 165 to 166 | COc1cc(C(=O)N2Cc3ccc(C(=O)NCc4cccc(C)c4)n3Cc3ccccc32)ccc1-c1ccccc1C [Example 37, 10-[(2-METHOXY-2′-METHYL-1,1′-BIPHENYL-4-YL)CARBONYL]-N-(3-METHYLBENZYL)-10,11-DIHYDRO-5H-PYRROLO[2,1-C][1,4]BENZODIAZEPINE-3-CARBOXAMIDE] | –
5.37 | 2.6 | – | 105 to 115 | Cc1ccccc1-c1ccc(C(=O)N2Cc3ccc(C(=O)NCc4cccc(N)c4)n3Cc3ccccc32)cc1C [Example 34] | –
3.4 | 1.3 | 79 | 153 to 155 | COc1cc(C(=O)N2Cc3ccc(C(=O)NCc4ccc5c(c4)OCCO5)n3Cc3ccccc32)ccc1-c1ccccc1C [Example 64] | –
5.65 | > 30 | – | – | Cc1ccccc1-c1ccc(C(=O)N2Cc3ccc(C(=O)NCCc4ccc5c(c4)OCO5)n3Cc3ccccc32)cc1C [Example 33] | –
– | – | – | 163 to 165 | O=C(NC1CCCc2ccccc21)c1ccc2n1Cc1ccccc1N(C(=O)CSc1ccc(Br)cc1)C2 (stereo not shown) [Example 87, 10-{[(4-BROMOPHENYL)THIO]ACETYL}-N-(1,2,3,4-TETRAHYDRONAPHTHALEN-1-YL)-10,11-DIHYDRO-5H-PYRROLO[2,1-C][1,4]BENZODIAZEPINE-3-CARBOXAMIDE] | inhibition at 30 µM (human FSH receptor; [1]): 3%
– | – | – | 201 to 202 | O=C(Nc1ccc(-c2ccccc2)cc1)c1ccc2n1Cc1ccccc1N(C(=O)COc1ccc(Cl)cc1)C2 [Example 74, N-(1,1′-BIPHENYL-4-YL)-10-[(4-CHLOROPHENOXY)ACETYL]-10,11-DIHYDRO-5H-PYRROLO[2,1-C][1,4]BENZODIAZEPINE-3-CARBOXAMIDE] | inhibition at 30 µM (human FSH receptor; [1]): 6%
~30 | – | – | 152 to 154 | Cc1ccccc1-c1ccc(C(=O)N2Cc3ccc(C(=O)NC(C)CCc4ccccc4)n3Cc3ccccc32)cc1C (stereo not shown) [Example 32] | –
> 30 | – | – | 165 to 167 | COc1cc(C(=O)N2Cc3ccc(C(=O)NCc4ccccc4C(F)(F)F)n3Cc3ccccc32)ccc1-c1ccccc1C [Example 39, 10-[(2-METHOXY-2′-METHYL-1,1′-BIPHENYL-4-YL)CARBONYL]-N-[2-(TRIFLUOROMETHYL)BENZYL]-10,11-DIHYDRO-5H-PYRROLO[2,1-C][1,4]BENZODIAZEPINE-3-CARBOXAMIDE] | –
> 30 | – | – | 150 | O=C(NCc1ccc(Cl)c(Cl)c1)c1ccc2n1Cc1ccccc1N(C(=O)CSc1ccc(Br)cc1)C2 [Example 81, 10-{[(4-BROMOPHENYL)THIO]ACETYL}-N-(3,4-DICHLOROBENZYL)-10,11-DIHYDRO-5H-PYRROLO[2,1-C][1,4]BENZODIAZEPINE-3-CARBOXAMIDE] | –
> 30 | – | – | 230 to 231 | COc1cc(C(=O)N2Cc3ccc(C(=O)NC4Cc5ccccc5C4)n3Cc3ccccc32)ccc1-c1ccccc1C [Example 65, N-(2,3-DIHYDRO-1H-INDEN-2-YL)-10-[(2-METHOXY-2′-METHYL-1,1′-BIPHENYL-4-YL)CARBONYL]-10,11-DIHYDRO-5H-PYRROLO[2,1-C][1,4]BENZODIAZEPINE-3-CARBOXAMIDE] | –
> 30 | – | – | 148 to 150 | COc1cc(C(=O)N2Cc3ccc(C(=O)NCc4ccc(N(C)C)cc4)n3Cc3ccccc32)ccc1-c1ccccc1C [Example 57, N-[4-(DIMETHYLAMINO)BENZYL]-10-[(2-METHOXY-2′-METHYL-1,1′-BIPHENYL-4-YL)CARBONYL]-10,11-DIHYDRO-5H-PYRROLO[2,1-C][1,4]BENZODIAZEPINE-3-CARBOXAMIDE] | –
> 30 | – | – | 133 to 136 | CN(C)c1cccc(NC(=O)c2ccc3n2Cc2ccccc2N(C(=O)COc2ccc(Cl)cc2)C3)c1 [Example 101, 10-[(4-CHLOROPHENOXY)ACETYL]-N-[3-(DIMETHYLAMINO)PHENYL]-10,11-DIHYDRO-5H-PYRROLO[2,1-C][1,4]BENZODIAZEPINE-3-CARBOXAMIDE] | –
> 30 | – | – | 126 to 128 | Cc1ccccc1-c1ccc(C(=O)N2Cc3ccc(C(=O)NCC(c4ccccc4)c4ccccc4)n3Cc3ccccc32)cc1C [Example 90] | –
> 30 | – | – | 219 to 220 | Cc1ccccc1-c1ccc(C(=O)N2Cc3ccc(C(=O)NC4Cc5ccccc5C4)n3Cc3ccccc32)cc1C [Example 93] | –

— patent US7691848B2, “Pyrrolobenzodiazepine arylcarboxamides and derivatives thereof as follicle-stimulating hormone receptor antagonists” (Wyeth, priority 2005, dated 2010)
